Reference: US6914045B2, “Glycopeptide antibiotics” (Wyeth Holdings Corporation, priority 2001, dated 2005)
Values after ≈ are worked out from the molar mass of the structure shown. Numbered stars: 1 amine (or outer) side, 2 acyl side, 3 side chain; on linkers, the order of the positions; unused ones are H or OH. Square brackets hold non-standard residues; d marks the D form. Peptide text beside a SMILES is read from it. ξ: configuration not given here. X1 = N=C1NCC(C(O)C(N[*:1])C(=O)[*:2])N1C1OC(CO)C(O)C(O)C1O; ξEnduracididine(βξ-OH,4'ξ) = N=C1NCC(C(O)C(N)C(=O)O)N1; Cha = N[CH](CC1CCCCC1)C(=O)O

Key:
[1] = clinical pathology (serum clinical chemistry) in mice; type: in vivo; conditions: CD-1 mice, 20 mg/kg intravenously daily for 9 days, sera day 10
Description: 20-day-old CD-1 mice were divided into a vehicle control group (5 mice) and a treatment group (5 mice). Samples of glycopeptide antibiotics were administered at 20 mg/kg intravenously daily for 9 days.

Escherichia coli = test: in vitro antibacterial evaluation, MIC by broth dilution; type: cell-based; conditions: broth dilution, 18 hours at 35° C.
Summary of the method: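 MIC is the lowest antibiotic concentration (tested 64-0.06 μg/mL) preventing growth of a 5×10^5 CFU/mL inoculum. Determined by broth dilution in Mueller-Hinton II medium following NCCLS standard M7-A2.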

[2] = anatomic pathology (histopathology of heart and kidney) in mice; type: in vivo; conditions: CD-1 mice, 20 mg/kg intravenously daily for 9 days, necropsy day 10, microscopic histopathology
Description: Samples of tissues from necropsied mice were formalin-fixed, paraffin-embedded, sectioned, stained with hematoxylin and eosin, and examined microscopically. Histopathologic findings were recorded. These findings were subjectively graded on a scale corresponding to slight, mild, moderate, marked and severe as compared to untreated controls.

Enterococcus sp. = test: in vitro antibacterial evaluation, MIC by broth dilution; type: cell-based; conditions: broth dilution, 18 hours at 35° C.
Summary of the method: (§1)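 Test organisms, which included recent clinical isolates resistant to methicillin, penicillin and/or vancomycin, were inoculated at 5×10^5 CFU/mL into Muller-Hinton II […] containing antibiotic at 64-0.06 μg/mL. Minimum inhibitory concentrations were then read as the lowest level inhibiting growth.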

Streptococcus sp. = test: as above; type: cell-based; conditions: broth dilution, 18 hours at 35° C.
Summary of the method: as §1

Staphylococcus sp. = test: as above; type: cell-based; conditions: broth dilution, 18 hours at 35° C.
Summary of the method: as §1

N=C1NCC(C(O)C2NC(=O)C(CC3CCCCC3)NC(=O)C(CC3CCCCC3)NC(=O)CNC(=O)C(CO)NC(=O)C(C(O)C3CNC(=N)N3C3OC(CO)C(O)C(O)C3O)NC2=O)N1 (stereo not drawn) [Example 52, Cyclo[3-cyclohexylalanyl-3-cyclohexylalanyl-3-(2-iminoimidazolidin-4-yl)seryl-3-(3-hexopyranosyl-2-iminoimidazolidin-4-yl)serylserylglycyl]] (cyclo(G[Cha][Cha][ξEnduracididine(βξ-OH,4'ξ)][X1]S); configuration not given here)
Clinical Chemistry (Day 10) % of Control, BUN [1]: 211% | MIC Escherichia coli (ATCC 25922) (Escherichia coli; strain ATCC 25922): 64 µg/mL (≈ 67.2 µM) | MIC Escherichia coli (GC 4559) (Escherichia coli; strain GC 4559): 64 µg/mL (≈ 67.2 µM) | MIC Escherichia coli (GC 4560) (Escherichia coli; strain GC 4560): 16 µg/mL (≈ 16.8 µM) | Anatomical Pathology (Day 10), Heart [2]: 0 | Anatomical Pathology (Day 10), Kidney [2]: +++ | MIC Enterococcus faecalis (ATCC 29212) (Enterococcus sp.; strain ATCC 29212): 64 µg/mL (≈ 67.2 µM) | MIC Enterococcus faecalis (GC 2242) (Enterococcus sp.; strain GC 2242): 32 µg/mL (≈ 33.6 µM) | MIC Enterococcus faecium (GC 2243) (Enterococcus sp.; strain GC 2243): 16 µg/mL (≈ 16.8 µM) | MIC Enterococcus faecalis (GC 2691) (Enterococcus sp.; strain GC 2691): 32 µg/mL (≈ 33.6 µM) | MIC Enterococcus faecalis (GC 3059) (Enterococcus sp.; strain GC 3059): 32 µg/mL (≈ 33.6 µM) | MIC Enterococcus faecalis (GC 4552) (Enterococcus sp.; strain GC 4552): 32 µg/mL (≈ 33.6 µM) | MIC Enterococcus faecalis (GC 4553) (Enterococcus sp.; strain GC 4553): 16 µg/mL (≈ 16.8 µM) | MIC Enterococcus faecalis (GC 4554) (Enterococcus sp.; strain GC 4554): 64 µg/mL (≈ 67.2 µM) | MIC Enterococcus faecium (GC 4556) (Enterococcus sp.; strain GC 4556): 32 µg/mL (≈ 33.6 µM) | MIC Enterococcus faecium (GC 4557) (Enterococcus sp.; strain GC 4557): 8 µg/mL (≈ 8.39 µM) | MIC Enterococcus avium (GC 4558) (Enterococcus sp.; strain GC 4558): 32 µg/mL (≈ 33.6 µM) | MIC Enterococcus faecalis (GC 6189) (Enterococcus sp.; strain GC 6189): 32 µg/mL (≈ 33.6 µM) | MIC Streptococcus pneumoniae (ATCC 6301) (Streptococcus sp.; strain ATCC 6301): 8 µg/mL (≈ 8.39 µM) | MIC Streptococcus pneumoniae (GC 1894) (Streptococcus sp.; strain GC 1894): 8 µg/mL (≈ 8.39 µM) | MIC Streptococcus pyogenes (GC 4563) (Streptococcus sp.; strain GC 4563): 8 µg/mL (≈ 8.39 µM) | MIC Streptococcus agalactiae (GC 4564) (Streptococcus sp.; strain GC 4564): 8 µg/mL (≈ 8.39 µM) | MIC Streptococcus pneumoniae (GC 4565) (Streptococcus sp.; strain GC 4565): 16 µg/mL (≈ 16.8 µM) | MIC Staphylococcus aureus (ATCC 29213) (Staphylococcus sp.; strain ATCC 29213): 16 µg/mL (≈ 16.8 µM) | MIC Staphylococcus aureus (GC 1131) (Staphylococcus sp.; strain GC 1131): 16 µg/mL (≈ 16.8 µM) | MIC Staphylococcus aureus (GC 3051) (Staphylococcus sp.; strain GC 3051): 16 µg/mL (≈ 16.8 µM) | MIC Staphylococcus aureus (GC 3053) (Staphylococcus sp.; strain GC 3053): 32 µg/mL (≈ 33.6 µM) | MIC Staphylococcus aureus (GC 4541) (Staphylococcus sp.; strain GC 4541): 16 µg/mL (≈ 16.8 µM) | MIC Staphylococcus aureus (GC 4542) (Staphylococcus sp.; strain GC 4542): 8 µg/mL (≈ 8.39 µM) | MIC Staphylococcus aureus-SMITH (GC 4543) (Staphylococcus sp.; strain GC 4543): 16 µg/mL (≈ 16.8 µM) | MIC Staphylococcus aureus (GC 4544) (Staphylococcus sp.; strain GC 4544): 16 µg/mL (≈ 16.8 µM) | MIC Staphylococcus aureus (GC 4545) (Staphylococcus sp.; strain GC 4545): 8 µg/mL (≈ 8.39 µM) | MIC Staphylococcus haemolyticus (GC 4546) (Staphylococcus sp.; strain GC 4546): 4 µg/mL (≈ 4.2 µM) | MIC Coagulase Negative Staphylococcus (GC 4547) (Staphylococcus sp.; strain GC 4547): 8 µg/mL (≈ 8.39 µM) | MIC Coagulase Negative Staphylococcus (GC 4548) (Staphylococcus sp.; strain GC 4548): 8 µg/mL (≈ 8.39 µM) | MIC Coagulase Negative Staphylococcus (GC 4549) (Staphylococcus sp.; strain GC 4549): 4 µg/mL (≈ 4.2 µM) | MIC Coagulase Negative Staphylococcus (GC 4551) (Staphylococcus sp.; strain GC 4551): 8 µg/mL (≈ 8.39 µM)
